Consider three compounds from ChEMBL document CHEMBL5303573, “Mapping human microbiome drug metabolism by gut bacteria and their genes” (Nature, 2019).

The nature of one series: The drug is tested on Dorea formicigenerans strain: ATCC27755 for biotransformation. The drug concentrations were measured before and after a 12-h incubation by liquid-chromatography-coupled mass spectrometry (LC–MS). Particulars: 2 µM.
On to `Cc1ccc(S(=O)(=O)NC(=O)NN2CCCCCC2)cc1` [TOLAZAMIDE], for which the “Bacterial Biotransformation” value is given as “Compound NOT metabolized”.
The same measure, in the same setting: then `O=C1C(CC[S+]([O-])c2ccccc2)C(=O)N(c2ccccc2)N1c1ccccc1` (configuration not stated) [SULFINPYRAZONE], with “Compound NOT metabolized”; and `COc1ccccc1OCC(O)CN1CCN(CC(=O)Nc2c(C)cccc2C)CC1` (configuration not stated) [RANOLAZINE], with “Compound NOT metabolized”.

The nature of a further series: The drug is tested on Bacteroides xylanisolvens strain: DSM18836 for biotransformation. The drug concentrations were measured before and after a 12-h incubation by liquid-chromatography-coupled mass spectrometry (LC–MS). To be noted: 2 µM.
In the case of `Cc1ccc(S(=O)(=O)NC(=O)NN2CCCCCC2)cc1` [TOLAZAMIDE], the “Bacterial Biotransformation” value is “Compound metabolized”.
As to `O=C1C(CC[S+]([O-])c2ccccc2)C(=O)N(c2ccccc2)N1c1ccccc1` (configuration not stated) [SULFINPYRAZONE], the “Bacterial Biotransformation” value is “Compound metabolized”.
The same measure, in the same setting: under `COc1ccccc1OCC(O)CN1CCN(CC(=O)Nc2c(C)cccc2C)CC1` (configuration not stated) [RANOLAZINE] stands “Compound NOT metabolized”.

A short description of a further series: The drug is tested on Eubacterium ventriosum strain: ATCC27560 for biotransformation. The drug concentrations were measured before and after a 12-h incubation by liquid-chromatography-coupled mass spectrometry (LC–MS). The class given is ADME. Set-up: dose 2 uM, timepoint 0 vs 12 hours. To be noted: 2 µM.
Turning to `Cc1ccc(S(=O)(=O)NC(=O)NN2CCCCCC2)cc1` [TOLAZAMIDE], the “Bacterial Biotransformation” value was “Compound NOT metabolized”.
Still for that read-out and setting: under `O=C1C(CC[S+]([O-])c2ccccc2)C(=O)N(c2ccccc2)N1c1ccccc1` (configuration not stated) [SULFINPYRAZONE] stands “Compound NOT metabolized”.
The same measure, in the same setting: under `COc1ccccc1OCC(O)CN1CCN(CC(=O)Nc2c(C)cccc2C)CC1` (configuration not stated) [RANOLAZINE] stands “Compound NOT metabolized”.

The nature of the next series: The drug is tested on Bifidobacterium ruminantium strain: fecal isolate for biotransformation. The drug concentrations were measured before and after a 12-h incubation by liquid-chromatography-coupled mass spectrometry (LC–MS). To be noted: 2 µM.
As for `Cc1ccc(S(=O)(=O)NC(=O)NN2CCCCCC2)cc1` [TOLAZAMIDE], the “Bacterial Biotransformation” value was “Compound metabolized”.
Same read-out and setting: then `O=C1C(CC[S+]([O-])c2ccccc2)C(=O)N(c2ccccc2)N1c1ccccc1` (configuration not stated) [SULFINPYRAZONE], with “Compound NOT metabolized”; and `COc1ccccc1OCC(O)CN1CCN(CC(=O)Nc2c(C)cccc2C)CC1` (configuration not stated) [RANOLAZINE], with “Compound NOT metabolized”.

A short description of another series: The drug is tested on Providencia rettgeri strain: DSM1131 for biotransformation. The drug concentrations were measured before and after a 12-h incubation by liquid-chromatography-coupled mass spectrometry (LC–MS). The class given is ADME. Set-up: dose 2 uM, timepoint 0 vs 12 hours. To be noted: 2 µM.
Regarding `Cc1ccc(S(=O)(=O)NC(=O)NN2CCCCCC2)cc1` [TOLAZAMIDE], the “Bacterial Biotransformation” value was “Compound NOT metabolized”.
On the same count and under the same terms, then `COc1ccccc1OCC(O)CN1CCN(CC(=O)Nc2c(C)cccc2C)CC1` (configuration not stated) [RANOLAZINE], with “Compound NOT metabolized”.

Another series in a line: The drug is tested on Alistipes indistinctus strain: DSM22520 for biotransformation. The drug concentrations were measured before and after a 12-h incubation by liquid-chromatography-coupled mass spectrometry (LC–MS). To be noted: 2 µM.
In the case of `Cc1ccc(S(=O)(=O)NC(=O)NN2CCCCCC2)cc1` [TOLAZAMIDE], the “Bacterial Biotransformation” value is listed as “Compound NOT metabolized”.
Still for that read-out and setting: then `O=C1C(CC[S+]([O-])c2ccccc2)C(=O)N(c2ccccc2)N1c1ccccc1` (configuration not stated) [SULFINPYRAZONE], with “Compound NOT metabolized”; and `COc1ccccc1OCC(O)CN1CCN(CC(=O)Nc2c(C)cccc2C)CC1` (configuration not stated) [RANOLAZINE], with “Compound NOT metabolized”.

A short description of the next series: The drug is tested on Blautia hansenii strain: DSM20583 for biotransformation. The drug concentrations were measured before and after a 12-h incubation by liquid-chromatography-coupled mass spectrometry (LC–MS). To be noted: 2 µM.
With `Cc1ccc(S(=O)(=O)NC(=O)NN2CCCCCC2)cc1` [TOLAZAMIDE], the “Bacterial Biotransformation” value is “Compound metabolized”.
Still for that read-out and setting: then `O=C1C(CC[S+]([O-])c2ccccc2)C(=O)N(c2ccccc2)N1c1ccccc1` (configuration not stated) [SULFINPYRAZONE], with “Compound NOT metabolized”; and `COc1ccccc1OCC(O)CN1CCN(CC(=O)Nc2c(C)cccc2C)CC1` (configuration not stated) [RANOLAZINE], with “Compound NOT metabolized”.

For another series the following is noted: anaerostipes sp., 12 h, 2 µM.
Description: The drug is tested on Anaerostipes sp. strain: fecal isolate for biotransformation. The drug concentrations were measured before and after a 12-h incubation by liquid-chromatography-coupled mass spectrometry (LC–MS)
Take `Cc1ccc(S(=O)(=O)NC(=O)NN2CCCCCC2)cc1` [TOLAZAMIDE]: the “Bacterial Biotransformation” value was “Compound NOT metabolized”.
Consider `O=C1C(CC[S+]([O-])c2ccccc2)C(=O)N(c2ccccc2)N1c1ccccc1` (configuration not stated) [SULFINPYRAZONE], for which the “Bacterial Biotransformation” value is “Compound NOT metabolized”.
For `COc1ccccc1OCC(O)CN1CCN(CC(=O)Nc2c(C)cccc2C)CC1` (configuration not stated) [RANOLAZINE], the “Bacterial Biotransformation” value is on record as “Compound NOT metabolized”.

The nature of a further series: The drug is tested on Ruminococcus torques strain: ATCC27756 for biotransformation. The drug concentrations were measured before and after a 12-h incubation by liquid-chromatography-coupled mass spectrometry (LC–MS). Set-up: dose 2 uM, timepoint 0 vs 12 hours. The class given is ADME. Particulars: 2 µM.
Consider `Cc1ccc(S(=O)(=O)NC(=O)NN2CCCCCC2)cc1` [TOLAZAMIDE], for which the “Bacterial Biotransformation” value was “Compound NOT metabolized”.
Same read-out and setting: then `COc1ccccc1OCC(O)CN1CCN(CC(=O)Nc2c(C)cccc2C)CC1` (configuration not stated) [RANOLAZINE], with “Compound NOT metabolized”.

The next series is described as follows: The drug is tested on Bacteroides vulgatus strain: ATCC8482 for biotransformation. The drug concentrations were measured before and after a 12-h incubation by liquid-chromatography-coupled mass spectrometry (LC–MS). Particulars: phocaeicola vulgatus, 2 µM.
Consider `Cc1ccc(S(=O)(=O)NC(=O)NN2CCCCCC2)cc1` [TOLAZAMIDE], for which the “Bacterial Biotransformation” value is listed as “Compound metabolized”.
Same read-out and setting: then `O=C1C(CC[S+]([O-])c2ccccc2)C(=O)N(c2ccccc2)N1c1ccccc1` (configuration not stated) [SULFINPYRAZONE], with “Compound NOT metabolized”.
Still for that read-out and setting: then `COc1ccccc1OCC(O)CN1CCN(CC(=O)Nc2c(C)cccc2C)CC1` (configuration not stated) [RANOLAZINE], with “Compound NOT metabolized”.

The next series is described as follows: The drug is tested on Coprococcus comes strain: ATCC27758 for biotransformation. The drug concentrations were measured before and after a 12-h incubation by liquid-chromatography-coupled mass spectrometry (LC–MS). The class given is ADME. Set-up: dose 2 uM, timepoint 0 vs 12 hours. Particulars: 2 µM.
In the case of `Cc1ccc(S(=O)(=O)NC(=O)NN2CCCCCC2)cc1` [TOLAZAMIDE], the “Bacterial Biotransformation” value is recorded as “Compound NOT metabolized”.
On the same count and under the same terms, then `O=C1C(CC[S+]([O-])c2ccccc2)C(=O)N(c2ccccc2)N1c1ccccc1` (configuration not stated) [SULFINPYRAZONE], with “Compound NOT metabolized”; and `COc1ccccc1OCC(O)CN1CCN(CC(=O)Nc2c(C)cccc2C)CC1` (configuration not stated) [RANOLAZINE], with “Compound NOT metabolized”.

The conditions of a further series: segatella copri, 12 h, 2 µM.
Description: The drug is tested on Prevotella copri strain: DSM18205 for biotransformation. The drug concentrations were measured before and after a 12-h incubation by liquid-chromatography-coupled mass spectrometry (LC–MS)
With `Cc1ccc(S(=O)(=O)NC(=O)NN2CCCCCC2)cc1` [TOLAZAMIDE], the “Bacterial Biotransformation” value is listed as “Compound metabolized”.
The same measure, in the same setting: under `O=C1C(CC[S+]([O-])c2ccccc2)C(=O)N(c2ccccc2)N1c1ccccc1` (configuration not stated) [SULFINPYRAZONE] stands “Compound NOT metabolized”; under `COc1ccccc1OCC(O)CN1CCN(CC(=O)Nc2c(C)cccc2C)CC1` (configuration not stated) [RANOLAZINE], “Compound NOT metabolized”.

Another series in a line: The drug is tested on Bacteroides fragilis strain: HMW615 for biotransformation. The drug concentrations were measured before and after a 12-h incubation by liquid-chromatography-coupled mass spectrometry (LC–MS). To be noted: 2 µM.
As for `Cc1ccc(S(=O)(=O)NC(=O)NN2CCCCCC2)cc1` [TOLAZAMIDE], the “Bacterial Biotransformation” value was “Compound metabolized”.
As to `O=C1C(CC[S+]([O-])c2ccccc2)C(=O)N(c2ccccc2)N1c1ccccc1` (configuration not stated) [SULFINPYRAZONE], the “Bacterial Biotransformation” value is reported as “Compound metabolized”.
The same measure, in the same setting: then `COc1ccccc1OCC(O)CN1CCN(CC(=O)Nc2c(C)cccc2C)CC1` (configuration not stated) [RANOLAZINE], with “Compound NOT metabolized”.

A further series is described as follows: The drug is tested on Enterococcus faecalis strain: V583 for biotransformation. The drug concentrations were measured before and after a 12-h incubation by liquid-chromatography-coupled mass spectrometry (LC–MS). Particulars: 2 µM.
Turning to `Cc1ccc(S(=O)(=O)NC(=O)NN2CCCCCC2)cc1` [TOLAZAMIDE], the “Bacterial Biotransformation” value was “Compound NOT metabolized”.
The same measure, in the same setting: under `O=C1C(CC[S+]([O-])c2ccccc2)C(=O)N(c2ccccc2)N1c1ccccc1` (configuration not stated) [SULFINPYRAZONE] stands “Compound NOT metabolized”; under `COc1ccccc1OCC(O)CN1CCN(CC(=O)Nc2c(C)cccc2C)CC1` (configuration not stated) [RANOLAZINE], “Compound NOT metabolized”.

The nature of another series: The drug is tested on Odoribacter splanchnicus strain: fecal isolate for biotransformation. The drug concentrations were measured before and after a 12-h incubation by liquid-chromatography-coupled mass spectrometry (LC–MS). To be noted: 2 µM.
In the case of `Cc1ccc(S(=O)(=O)NC(=O)NN2CCCCCC2)cc1` [TOLAZAMIDE], the “Bacterial Biotransformation” value was “Compound metabolized”.
As to `O=C1C(CC[S+]([O-])c2ccccc2)C(=O)N(c2ccccc2)N1c1ccccc1` (configuration not stated) [SULFINPYRAZONE], the “Bacterial Biotransformation” value is recorded as “Compound metabolized”.
Still for that read-out and setting: under `COc1ccccc1OCC(O)CN1CCN(CC(=O)Nc2c(C)cccc2C)CC1` (configuration not stated) [RANOLAZINE] stands “Compound NOT metabolized”.

The nature of a further series: The drug is tested on Ruminococcus lactaris strain: ATCC29176 for biotransformation. The drug concentrations were measured before and after a 12-h incubation by liquid-chromatography-coupled mass spectrometry (LC–MS). Particulars: 2 µM.
Consider `Cc1ccc(S(=O)(=O)NC(=O)NN2CCCCCC2)cc1` [TOLAZAMIDE], for which the “Bacterial Biotransformation” value is “Compound NOT metabolized”.
For `O=C1C(CC[S+]([O-])c2ccccc2)C(=O)N(c2ccccc2)N1c1ccccc1` (configuration not stated) [SULFINPYRAZONE], the “Bacterial Biotransformation” value is “Compound NOT metabolized”.
Still for that read-out and setting: under `COc1ccccc1OCC(O)CN1CCN(CC(=O)Nc2c(C)cccc2C)CC1` (configuration not stated) [RANOLAZINE] stands “Compound NOT metabolized”.

For the next series the following is noted: roseburia intestinalis, 12 h, 2 µM.
Description: The drug is tested on Roseburia intestinalis strain: L1-82 for biotransformation. The drug concentrations were measured before and after a 12-h incubation by liquid-chromatography-coupled mass spectrometry (LC–MS)
With `Cc1ccc(S(=O)(=O)NC(=O)NN2CCCCCC2)cc1` [TOLAZAMIDE], the “Bacterial Biotransformation” value is “Compound NOT metabolized”.
Still for that read-out and setting: under `O=C1C(CC[S+]([O-])c2ccccc2)C(=O)N(c2ccccc2)N1c1ccccc1` (configuration not stated) [SULFINPYRAZONE] stands “Compound NOT metabolized”.
Same read-out and setting: then `COc1ccccc1OCC(O)CN1CCN(CC(=O)Nc2c(C)cccc2C)CC1` (configuration not stated) [RANOLAZINE], with “Compound NOT metabolized”.

The next series can be described thus: The drug is tested on Bacteroides uniformis strain: ATCC8492 for biotransformation. The drug concentrations were measured before and after a 12-h incubation by liquid-chromatography-coupled mass spectrometry (LC–MS). Particulars: 2 µM.
As to `Cc1ccc(S(=O)(=O)NC(=O)NN2CCCCCC2)cc1` [TOLAZAMIDE], the “Bacterial Biotransformation” value is “Compound metabolized”.
Still for that read-out and setting: under `COc1ccccc1OCC(O)CN1CCN(CC(=O)Nc2c(C)cccc2C)CC1` (configuration not stated) [RANOLAZINE] stands “Compound NOT metabolized”.

The conditions of the next series: akkermansia muciniphila, 12 h, 2 µM.
Description: The drug is tested on Akkermansia muciniphila strain: ATCC BAA-835 for biotransformation. The drug concentrations were measured before and after a 12-h incubation by liquid-chromatography-coupled mass spectrometry (LC–MS)
In the case of `O=C1C(CC[S+]([O-])c2ccccc2)C(=O)N(c2ccccc2)N1c1ccccc1` (configuration not stated) [SULFINPYRAZONE], the “Bacterial Biotransformation” value was “Compound NOT metabolized”.
